Laboratory results published in US11649239B2, “Crystal form a of (5-amino-8-(2-methyl-6-(trifluoromethyl)pyridin-4-yl)-7-phenyl-[1,2,4]triazolo[1,5-c]pyrimidin-2-yl)methanol (compound 1)” (Medshine Discovery Inc., priority 2018, dated 2023).
In brackets after ≈: the same amount, converted by molar mass. Entries after “also recorded” stand apart in the source; their conditions may differ. One block for each molecule: values may come before it.

Legend:
[1] = Determination of solubility of crystal form A of compound 1 in single or mixed solvents; format: physicochemical; details: for solubility: organic solvent or mixture, thermodynamic from solid
Experimental: Assay Example 1: Determination of Solubility of Crystal Form A of Compound 1
Multiple portions of about 2.0 mg of crystal form A of compound 1 were weighed in parallel and placed in glass vials. Various single solvents or mixed solvents listed in Table 2 were gradually added in small amount, and shaken constantly, while the dissolution of the compound was observed. The solubility of the compound was calculated based on the weight of the weighed compound and the volume of the correspondingly added solvent.

CT26 cells = assay: Pharmacodynamics in vivo in CT-26 model (subcutaneous CT26 tumor in BALB/c nude mice); details: anti-PD-1 5 mg/Kg QW; for Volume of tumor: crystal form A 50 mg/Kg BID oral
Text: Assay Example 4: Study of Pharmacodynamics of Crystal Form a of Compound 1 In Vivo in CT-26 Model
BALB/c nude mice (female, 7 weeks old, and weighing about 16 to 20 g) were kept in a breeding environment of SPF-class animal room, and in single ventilated cages (5 mice per cage). Bedding and water in all cages were disinfected before use. All the animals had free access to the standard certified commercial laboratory diet. A total of 80 mice were purchased from Shanghai Slack Laboratory Animal Co., Ltd. Anti-PD-1 antibody was purchased from BioXcell with the clone of RMP-14 and the product number of BP0146. 0.1 mL of 3×10^5 CT26 cells were subcutaneously inoculated in the right back of each mouse, and the mice were randomly divided into groups for administration.
CT26 cells were subcutaneously inoculated in the right back of each BALB/c nude mouse to test pharmacodynamics in vivo. In the assay, the test compound was administered orally every day for 22 consecutive days, and the anti-PD-1 antibody was administered once per week for three consecutive weeks. The volume of the tumor was measured twice a week with a two-dimensional caliper, and the volume was measured in cubic millimeter, which was calculated by the following formula: V=0.5 a×b^2, wherein a and b were the long and short diameters of the tumor, respectively. The anti-tumor efficacy was determined by dividing the average volume increase of the tumors of animals treated with the compound by the average volume increase of the tumors of the untreated animals. (BID means twice a day)

[2] = biological target: T1, human adenosine A2a receptor (Homo sapiens, UniProt P29274); assay: Calcium flux assay of the human adenosine A2a receptor (FLIPR, CHO cells stably expressing A2a, agonist NECA); format: cell-based; details: conclusion on Table 3
T1 construct: host or cells: CHO cells
T1 sequence (P29274 whole entry): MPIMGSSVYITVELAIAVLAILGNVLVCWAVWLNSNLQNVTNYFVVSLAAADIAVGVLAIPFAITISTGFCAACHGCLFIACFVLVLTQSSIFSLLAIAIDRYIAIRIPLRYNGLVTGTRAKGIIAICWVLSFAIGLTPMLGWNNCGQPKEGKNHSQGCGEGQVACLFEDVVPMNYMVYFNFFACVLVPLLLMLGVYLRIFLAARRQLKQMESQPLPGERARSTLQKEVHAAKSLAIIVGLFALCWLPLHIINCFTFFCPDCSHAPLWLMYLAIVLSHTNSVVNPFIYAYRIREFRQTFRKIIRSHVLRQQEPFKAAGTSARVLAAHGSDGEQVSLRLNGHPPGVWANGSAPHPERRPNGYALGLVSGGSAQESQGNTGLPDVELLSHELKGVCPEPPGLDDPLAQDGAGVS
Experimental: Calcium Flux Assay of the Human Adenosine A2a Receptor
The cell line stably expressing A2a was constructed by Shanghai WuXi AppTec, and the host cells were CHO cells.
Fluo-4 Direct kit (Invitrogen, Cat. No. F10471). The fluorescence detection reagent in the kit (which can specifically bind to calcium ions and cause an increase in the fluorescence signal) was incubated with the cells for an appropriate period of time, and the compounds were added to stimulate the cells to cause changes in the intracellular calcium flux, thereby causing changes in the fluorescence signal, which can reflect the strength of the agonistic or inhibitory activity of the compounds. […]
FLIPR instrument software was run. According to the set program, 10 μl of the compound dilution buffer was added to the cell plate, and the fluorescence signal was read. Then 10 μl of a predetermined concentration of the agonist as a reference compound was added to the cell plate, and the fluorescence signal was read. After the reading, data was exported through the “Max-Min” and “Read 90 to Maximum allowed” methods in the software. EC80 of the A2A cell line was calculated, and the agonist with a concentration of 6×EC80 was prepared. […]
FLIPR instrument software was run. […] Again, 10 μl of the agonist as a reference compound with a concentration of 6×EC80 was added to the cell plate, and the fluorescence signal was read. […]

[3] = Pharmacokinetics in female Balb/c mice after intravenous injection and oral administration; format: in vivo
Experimental: Object of the assay: to test the pharmacokinetics of the compound in female Balb/c mice in vivo
Balb/c mice (female, 15 to 30 g, 7 to 9 weeks old, from Shanghai Lingchang Biotechnology Company)
The pharmacokinetic profile of the compound after intravenous injection and oral administration in the rodents was tested by the standard protocol. In the assay, the candidate compound was prepared into a clear solution to be administered to the mice through a single intravenous injection and prepared into a homogeneous suspension to be administered to the mice through a single oral administration. The vehicle for the intravenous injection was 5% DMSO/95% 10% Cremophor EL, and the vehicle for the oral administration was 1% Tween 80, 9% PEG400, and 90% water. The whole blood sample was collected within 24 hours, and centrifuged at 3000 g at 4° C. for 15 minutes. The supernatant was separated to give the plasma sample, and 20 times volume of acetonitrile solution containing an internal standard was added to precipitate the proteins. […] The supernatant was taken out, and injected as a sample to quantitatively analyze the plasma drug concentration by LC-MS/MS analysis method. The pharmacokinetic parameters were calculated, such as peak concentration, peak time, clearance rate, half-life, area under the drug-time curve, bioavailability, etc.

Solubility in the solvents of Table 2 (in words) ([1]; conclusion on Table 2): good solubility | solubility ([1]; solvent 1,4-Dioxane): 35 to 52.5 mg/mL (≈ 87.4 to 131 mM) | solubility ([1]; solvent Acetone): 33.3 to 50 mg/mL (≈ 83.2 to 125 mM) | solubility ([1]; solvent Acetonitrile): 12.2 to 13.8 mg/mL (≈ 30.5 to 34.5 mM) | solubility ([1]; solvent Acetonitrile:Water (2:1)): 26.3 to 35 mg/mL (≈ 65.7 to 87.4 mM) | solubility ([1]; solvent Ethanol): 28.8 to 38.3 mg/mL (≈ 71.9 to 95.7 mM) | solubility ([1]; solvent Ethanol:Water (3:1)): 25 to 50 mg/mL (≈ 62.4 to 125 mM) | solubility ([1]; solvent Ethyl acetate): 12.5 to 16.7 mg/mL (≈ 31.2 to 41.7 mM) | solubility ([1]; solvent Isopropanol): 14.4 to 16.4 mg/mL (≈ 36 to 41 mM) | solubility ([1]; solvent Methanol): 47.5 to 95 mg/mL (≈ 119 to 237 mM) | solubility ([1]; solvent Methyl ethyl ketone): 36.7 to 55 mg/mL (≈ 91.7 to 137 mM) | solubility ([1]; solvent N-butanol): 15.7 to 18.3 mg/mL (≈ 39.2 to 45.7 mM) | solubility ([1]; solvent Tetrahydrofuran): > 105 mg/mL
SMILES: Cc1cc(-c2c(-c3ccccc3)nc(N)n3nc(CO)nc23)cc(C(F)(F)F)n1 [Crystal form A of compound 1, (5-amino-8-(2-methyl-6-(trifluoromethyl)pyridin-4-yl)-7-phenyl-[1,2,4]triazolo[1,5-c]pyrimidin-2-yl)methanol]
Anti-tumor effect (in words) (CT26 cells; CT-26 mouse model, crystal form A 50 mg/Kg BID): has an anti-tumor effect; also recorded: significant inhibitory effect on the tumor | Volume of tumor (CT26 cells; Day 10): 47 mm^3 | Volume of tumor (CT26 cells; Day 13): 127 mm^3 | Volume of tumor (CT26 cells; Day 15): 204 mm^3 | Volume of tumor (CT26 cells; Day 18): 312 mm^3 | Volume of tumor (CT26 cells; Day 20): 409 mm^3 | Volume of tumor (CT26 cells; Day 22): 538 mm^3

Antagonistic activity against the adenosine A2a receptor (in words) [2]: excellent antagonistic activity | Pharmacokinetic index in mice (in words) ([3]; conclusion on Table 4): excellent pharmacokinetic index | clearance ([3]; mouse, plasma, female Balb/c mice, single intravenous injection, read-out: Clearance rate): 18 mL/min/kg
SMILES: Cc1cc(-c2c(-c3ccccc3)nc(N)n3nc(CO)nc23)cc(C(F)(F)F)n1 [Compound 1, (5-amino-8-(2-methyl-6-(trifluoromethyl)pyridin-4-yl)-7-phenyl-[1,2,4]triazolo[1,5-c]pyrimidin-2-yl)methanol]
